Patent EP1143976B9, “BETA-D-2', 3' -DIDEHYDRO-2', 3' -DIDEOXY-5-FLUOROCYTIDINE FOR USE IN THE TREATMENT OF HIV INFECTIONS” (priority 1999, dated 2000)
Where “and” joins values, the source holds several entries; their conditions need not be identical. Equal entries are not always repeated. Where two headings read alike, the source gives them in different places.

Assays:
[1] = tested on: 4xM184VPITT (184V,67N,70R,215Y,219Q); assay: Effect against cloned viruses, in MT-2 cells; type: cell-based, HIV-1; details: for FI50: In MT-2 cells, EC50 relative to HIV-1LAV or xxBRUPITT
[2] = tested on: G2-2PITT (103N,41L,184V,210W,others); assay: Effect against cloned viruses, in MT-2 cells; type: cell-based, HIV-1; details: for FI50: In MT-2 cells, EC50 relative to HIV-1LAV or xxBRUPITT
215/41PITT = assay: Effect against HIV-1 and cloned viruses in human PBM cells; type: cell-based; details: for FI50: EC50 relative to HIV-1LAV or xxBRUPITT
Text: (§1) Table 5 provides the median effective concentration and combinations index (C.I.) values for D-D4FC alone and in combination with AZT and D4T in acutely infected human PBM cells (Day6). Table 6 describes the effect of β-D and β-L-D4FC against HIV-1 and cloned viruses I human PBM cells.

[3] = tested on: 4X AZTPITT (67N,70R,215Y,219Q); assay: as above; type: cell-based; details: for EC50 / EC90: human PBM cells
Text: as §1

L-D4FC-res.(25 µM) = assay: as above; type: cell-based
Text: as §1

M184V/T215YPITT = assay: as above; type: cell-based; details: for FI50: EC50 relative to HIV-1LAV or xxBRUPITT; for FI90: EC90 relative to HIV-1LAV or xxBRUPITT
Text: as §1

M184VPITT = assay: as above; type: cell-based; details: for FI50: EC50 resistant virus relative to HIV-1LAV or xxBRUPITT; for FI90: EC90 resistant virus relative to HIV-1LAV or xxBRUPITT
Text: as §1

T215YPITT = assay: as above; type: cell-based; details: for FI50: EC50 relative to HIV-1LAV or xxBRUPITT; for FI90: EC90 relative to HIV-1LAV or xxBRUPITT
Text: as §1

[4] = tested on: HIV-1 in acutely infected human PBM cells; assay: Median effect and combination index analysis in acutely infected human PBM cells (Day 6); type: cell-based; details: Human immunodeficiency virus 1, PBMC, 144 h
Text: as §1

HIV-1LAI = assay: Antiviral susceptibility assay (inhibition of p24 antigen production) in MT-2 cells, starting virus; type: cell-based; details: Human immunodeficiency virus 1, MT2, 168 h, day 7 post infection, HIV-1LAI P0, wild type baseline
Experimental: Cells. MT-2 cells (AIDS Research and Reference Reagent Program, National Institute of Allergy and Infectious Diseases, National Institutes of Health, contributed by D. Richman) were cultured in RPMI 1640 (Whittaker M.A., Bioproducts, Walkersville, MD) supplemented with 10% fetal bovine serum, 10 mM HEPES buffer, penicillin (50 IU/ml) and streptomycin (50 µg/ml).
Viruses. HIV-1LAI, a molecularly cloned clinical isolate, was used both as the starting virus for the resistance selection as well as for the generation of recombinant mutants. Stock preparations of HIV-1LAI, were prepared by electrophorating 5-10 jig of proviral plasmid DNA into 1.3 x 10^7 MT-2 cells. At peak viral cytopathic effect (generally 7 days post transfection), the supernatant from infected cultures was collected, aliquoted and stored at -80°C until use. Virus preparations were titered by threefold endpoint dilution in MT-2 cells, and the TCID50 was calculated with the Reed and Muench equation.
Antiviral susceptibility assays. Virus susceptibility to D-D4FC was measured by measuring percent inhibition of p24 antigen production. Briefly, MT-2 cells (1 x 10^5 cells/ml) were infected with virus at a moi of 0.01 in the presence of serial D-D4FC dilutions. Each dilution was tested in triplicate. […]

HIV-1p37 D-Fd4C#1 = assay: Antiviral susceptibility assay (p24 antigen) in MT-2 cells, D-D4FC selected virus, selection #1 passage 37; type: cell-based; details: V90I, R172K
Experimental: (§2) Selection of resistant virus. Prior to starting the selection of D-D4FC resistant virus, the starting virus (HIV -1LAI) was passaged as cell-free virus for 10 cycles in MT-2 cells in the absence of drug. D-D4FC resistant virus was selected by serially passaging HIV-1LAI in MT-2 cells in the presence of gradually increasing concentrations of D-D4FC. The selection for D-D4FC resistant virus was conducted twice. Selection was initiated by inoculating 1 x 10^6 MT-2 cells with […] of virus. At peak viral cytopathic effect (4-7 days post infection), supernatant from the infected cultures was collected and 0.1-0.3 ml were subsequently used to initiate another cycle of infection. Supernatant was also aliquoted and stored at -80°C for characterization of selected virus. Virus was passaged at least three times at each concentration, the number of cycles at any given concentration of drug being dependent on the ability of virus to grow at the particular concentration of D-D4FC. During the first selection procedure, virus was passaged once in the absence of drug prior to increasing the drug concentration (Table 2). As a control, virus was also passaged in parallel in the absence of drug. […]
Antiviral susceptibility assays. Virus susceptibility to D-D4FC was measured by measuring percent inhibition of p24 antigen production. […]

HIV-1p20 D-Fd4C#2 = assay: Antiviral susceptibility assay (p24 antigen) in MT-2 cells, D-D4FC selected virus, selection #2 passage 20; type: cell-based; details: mutations K65R, V179D; for EC50: p24 antigen, selection #2 passage 20
Experimental: as §2
(§3) Antiviral susceptibility assays. Virus susceptibility to D-D4FC was measured by measuring percent inhibition of p24 antigen production. Briefly, MT-2 cells (1 x 10^5 cells/ml) were infected with virus at a moi of 0.01 in the presence of serial D-D4FC dilutions. Each dilution was tested in triplicate. Culture supernatants were harvested day 7 post infection and assayed for p24 antigen production using a commercial assay (DuPont, NEN Products, Wilmington, Del.).

xxK65R = assay: D-D4FC susceptibility of recombinant HIV-1 in MT-2 cells; type: cell-based
Experimental: as §3
(§4) Production of mutant recombinant HIV-1. Mutant RT was generated using the Altered SitesII in vitro Mutagenesis System (Promega, Madison, WI). Mutagenesis was carried out on HIV-1LAI, RT cloned into a mutagenesis vector (PALTER, Promega). The presence of the desired mutation was determined by direct sequencing of the RT gene. The mutant RT was subsequently ligated into the pxxHIV-1 LAI vector. Stocks of mutant virus were then prepared by electrophorating 5-10 µg of DNA into 1.3 x 10^7 MT-2 cells as described above.

xxK70N//R172K = assay: as above; type: cell-based
Experimental: as §3, §4

xxK70N = assay: as above; type: cell-based
Experimental: as §3, §4

xxR172K = assay: as above; type: cell-based
Experimental: as §3, §4

xxV901/R172K = assay: as above; type: cell-based
Experimental: as §3, §4

xxV90I = assay: as above; type: cell-based
Experimental: as §3, §4

HIV-1LAV = assay: Effect against HIV-1 and cloned viruses in human PBM cells; type: cell-based; details: Human immunodeficiency virus 1, PBMC
Text: as §1

xxBRUPITT = assay: as above; type: cell-based; details: Human immunodeficiency virus 1, PBMC
Text: as §1

[5] = In MT-2 cells (courtesy of Dr. J. Mellors)
[6] = human PBM cells, L-D4FC-res.(25 µM) virus
[7] = acutely infected human PBM cells, Day 6
[8] = median effective concentration, acutely infected human PBM cells, Day 6, read-out: EC50
[9] = Human immunodeficiency virus 1, MT2, In MT-2 cells (courtesy of Dr. J. Mellors)
[10] = EC90 relative to HIV-1LAV or xxBRUPITT
[11] = Human immunodeficiency virus 1, PBMC, human PBM cells
[12] = Human immunodeficiency virus 1, PBMC

In the case of `Nc1nc(=O)n([C@H]2C=C[C@@H](CO)O2)cc1F` [β-L-D4FC, β-2',3'-didehydro-2',3'-dideoxy-5-fluorocytidine, reference compound], the EC50 [1, 5] is reported as > 3300 nM, the FI50 [1] is reported as >47 and the EC50 [2, 5] is reported as > 3300 nM. The FI50 [2] was >47, the FI50 (215/41PITT) was 1 and the EC50 [3] was 16 nM. It also gave an EC90 [3] of 110 nM, an FI50 (L-D4FC-res.(25 µM); EC50 relative to HIV-1LAV or xxBRUPITT, L-D4FC-res.(25 µM)) of 222 and an FI90 (L-D4FC-res.(25 µM); EC90 relative to HIV-1LAV or xxBRUPITT, L-D4FC-res.(25 µM)) of 208. The EC50 (L-D4FC-res.(25 µM); [6]) was 7560 nM, the EC90 (L-D4FC-res.(25 µM); [6]) was 33300 nM and the FI50 (M184V/T215YPITT) was 332. It also gave an FI90 (M184V/T215YPITT) of 848, an FI50 (M184VPITT) of 146 and an FI90 (M184VPITT) of 163. It also gave an FI50 (T215YPITT) of 0.2 and an FI90 (T215YPITT) of 0.3.
In the case of `Cc1cn([C@H]2C=C[C@@H](CO)O2)c(=O)[nH]c1=O` [D4T, 2',3'-dideoxy-2',3'-didehydrothymidine], the EC90 [4, 7] is reported as 220 nM and the EC50 [4, 8] is reported as 15 nM.
For `Nc1nc(=O)n([C@H]2C=C[C@@H](CO)O2)cc1F` [D-D4FC, β-2',3'-didehydro-2',3'-dideoxy-5-fluorocytidine], the EC50 (HIV-1LAI) was 210 nM, the EC50 (HIV-1p37 D-Fd4C#1; Human immunodeficiency virus 1, MT2, p24 antigen, selection #1 passage 37, mutations K70N) was 4070 nM and the “Fold Resistance” value (HIV-1p37 D-Fd4C#1; versus wild type HIV-1LAI, mutations K70N, 10080 min) was 19.3 and 19.4. For the same compound, the EC50 (HIV-1p20 D-Fd4C#2; Human immunodeficiency virus 1, MT2, MT-2 cells) was 1100 nM, the EC50 (HIV-1p20 D-Fd4C#2; MT-2 cells) was 1110 nM and the “Fold Resistance” value (HIV-1p20 D-Fd4C#2; MT-2 cells, versus wild type HIV-1LAI, 10080 min) was 5.3. The EC50 (xxK65R; Human immunodeficiency virus 1, MT2, recombinant xxK65R) was 1240 nM, the “Fold Resistance” value (xxK65R; xxK65R versus xxLAI, 10080 min) was 3.9 and the EC50 (xxK70N//R172K; Human immunodeficiency virus 1, MT2) was 56 nM. For the same compound, the “Fold Resistance” value (xxK70N//R172K; MT-2 cells, xxK70N/V901/R172K versus xxLAI, 10080 min) was 0.4, the EC50 (xxK70N; Human immunodeficiency virus 1, MT2, recombinant xxK70N) was 240 nM and the “Fold Resistance” value (xxK70N; xxK70N versus xxLAI, 10080 min) was 1.4. For the same compound, the EC50 (xxR172K; Human immunodeficiency virus 1, MT2, recombinant xxR172K) was 230 nM, the “Fold Resistance” value (xxR172K; xxR172K versus xxLAI, 10080 min) was 0.8 and the EC50 (xxV901/R172K; Human immunodeficiency virus 1, MT2, recombinant xxV901/R172K) was 360 nM. The “Fold Resistance” value (xxV901/R172K; xxV901/R172K versus xxLAI, 10080 min) was 1.3, the EC50 (xxV90I; Human immunodeficiency virus 1, MT2, recombinant xxV90I) was 250 nM and the “Fold Resistance” value (xxV90I; xxV90I versus xxLAI, 10080 min) was 1.5. It also gave an EC90 [4, 7] of 78 nM, an EC50 [4, 8] of 7.6 nM and an EC50 [1, 9] of 45 nM. It also gave an FI50 ([1]; listed as β-D-D4FC) of 0.2, an EC50 [2, 9] of 40 nM and an FI50 ([2]; listed as β-D-D4FC) of 0.2. It also gave an FI50 (215/41PITT; listed as β-D-D4FC) of 2, an FI90 (215/41PITT; [10]) of 1 and an EC50 (215/41PITT; [11]) of 130 nM. For the same compound, the EC90 (215/41PITT; [11]) was 490 nM, the FI50 ([3]; EC50 relative to HIV-1LAV or xxBRUPITT) was 1 and the FI90 [3, 10] was 1. For the same compound, the EC50 [3, 12] was 72 nM, the EC90 [3, 12] was 460 nM and the EC50 (HIV-1LAV) was 220 nM. The EC90 (HIV-1LAV) was 1320 nM, the FI50 (M184V/T215YPITT; listed as β-D-D4FC) was 1 and the FI90 (M184V/T215YPITT; listed as β-D-D4FC) was 1. The EC50 (M184V/T215YPITT; [11]) was 57 nM, the EC90 (M184V/T215YPITT; [11]) was 470 nM and the FI50 (M184VPITT; listed as β-D-D4FC) was 2. The FI90 (M184VPITT; listed as β-D-D4FC) was 2, the EC50 (M184VPITT; [11]) was 140 nM and the EC90 (M184VPITT; [11]) was 1040 nM. It also gave an FI50 (T215YPITT; listed as β-D-D4FC) of 1, an FI90 (T215YPITT; listed as β-D-D4FC) of 1 and an EC50 (T215YPITT; [11]) of 67 nM. For the same compound, the EC90 (T215YPITT; [11]) was 350 nM and the EC50 (xxBRUPITT) was 65 nM.
`Cc1cn([C@H]2C[C@H](N=[N+]=[N-])[C@@H](CO)O2)c(=O)[nH]c1=O` [AZT, 3'-azido-3'-deoxythymidine] was tested, and the EC50 [4] was 3.3 nM.
